Results on 5 molecules are retold here after ChEMBL document CHEMBL1145454, “Endiandrin A, a potent glucocorticoid receptor binder isolated from the Australian plant Endiandra anthropophagorum” (J Nat Prod, 2007).

The assay deals with T1, Glucocorticoid receptor (Homo sapiens, UniProt P04150).
T1 sequence (P04150 whole entry): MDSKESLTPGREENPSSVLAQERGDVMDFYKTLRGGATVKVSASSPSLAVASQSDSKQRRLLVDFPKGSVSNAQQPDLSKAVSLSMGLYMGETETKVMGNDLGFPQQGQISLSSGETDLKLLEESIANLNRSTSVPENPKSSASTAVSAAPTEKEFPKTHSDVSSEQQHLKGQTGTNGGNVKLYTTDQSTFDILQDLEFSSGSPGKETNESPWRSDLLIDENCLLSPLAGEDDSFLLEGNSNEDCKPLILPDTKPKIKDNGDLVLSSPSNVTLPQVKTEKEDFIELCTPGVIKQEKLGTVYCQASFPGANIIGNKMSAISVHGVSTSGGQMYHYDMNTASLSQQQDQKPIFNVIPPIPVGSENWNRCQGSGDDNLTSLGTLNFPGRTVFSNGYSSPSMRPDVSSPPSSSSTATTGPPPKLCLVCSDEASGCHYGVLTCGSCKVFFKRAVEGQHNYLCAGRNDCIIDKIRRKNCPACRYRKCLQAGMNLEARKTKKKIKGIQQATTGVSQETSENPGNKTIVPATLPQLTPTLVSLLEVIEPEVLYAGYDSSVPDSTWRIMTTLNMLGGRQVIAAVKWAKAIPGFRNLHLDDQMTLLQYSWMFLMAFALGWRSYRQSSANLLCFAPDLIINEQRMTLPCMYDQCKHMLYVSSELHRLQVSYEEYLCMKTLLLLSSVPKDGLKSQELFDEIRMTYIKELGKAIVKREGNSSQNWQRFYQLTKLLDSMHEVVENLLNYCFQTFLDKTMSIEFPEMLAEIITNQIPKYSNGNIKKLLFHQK
Briefly: Binding affinity to glucocorticoid receptor by GR binding assay.
Molecule `COc1cc(C[C@@H](C)[C@H](C)Cc2ccc(O)c(OC)c2)ccc1O` [(-)-DIHYDROGUAIARETICACID] returned a half-inhibitory concentration (IC50) of 35 µM.
For `COc1cc([C@@H]2[C@@H](C)[C@H](C)[C@H]2c2ccc(OC(C)=O)c(OC)c2)ccc1OC(C)=O` [DI-O-ACETYLENDIANDRIN A] the value was 34 µM; for `COc1ccc([C@@H]2[C@@H](C)[C@H](C)[C@H]2c2ccc(OC)c(OC)c2)cc1OC` [DI-O-METHYLENDIANDRIN A], 13 µM.
For the molecule `COc1cc([C@@H]2[C@@H](C)[C@H](C)[C@H]2c2ccc(O)c(OC)c2)ccc1O` [ENDIANDRIN A], the IC50 was 0.9 µM.
For the molecule `COc1cc([C@H]2O[C@@H](c3ccc(O)c(OC)c3)[C@H](C)[C@@H]2C)ccc1O` [NECTANDRIN B], the IC50 came to 27 µM.
